Test results reported in US11912683B1 (priority 2023, dated 2024).
In brackets after ≈: the same amount, converted by molar mass.

Assays:
[1] = system: Mycobacterium tuberculosis H37Rv; assay: Anti-tubercular activity, colorimetric Resazurin Microplate Assay (REMA), H37Rv; assay type: cell-based; conditions: 192 h, read-out: Anti-tubercular activity against Mycobacterium tuberculosis H37Rv (MIC)

SMILES | melting point | MIC [1]
CC1=C(C(=O)N2CCCCC2)C(c2ccc(O)c(O)c2)NC(=S)N1 (stereo not drawn) [DHPM-KN13, (4-(3,4-Dihydroxyphenyl)-6-methyl-2-thioxo-1,2,3,4-tetrahydropyrimidin-5-yl)(piperidin-1-yl)methanone] | 173 °C | 
CC1=C(C(=O)N2CCCCC2)C(c2ccccc2C)NC(=S)N1 (stereo not drawn) [DHPM-KN8, (6-Methyl-2-thioxo-4-(o-tolyl)-1,2,3,4-tetrahydropyrimidin-5-yl)(piperidin-1-yl)methanone] | 260 °C | 128 µg/mL (≈ 389 µM)
CC1=C(C(=O)N2CCCC2)C(c2ccccc2)NC(=S)N1 (stereo not drawn) [DHPM-KN14, (6-Methyl-4-phenyl-2-thioxo-1,2,3,4-tetrahydropyrimidin-5-yl)(pyrrolidin-1-yl)methanone] | 198 °C | 
CC1=C(C(=O)N2CCCCC2)C(c2ccccc2O)NC(=S)N1 (stereo not drawn) [DHPM-KN12, (4-(2-Hydroxyphenyl)-6-methyl-2-thioxo-1,2,3,4-tetrahydropyrimidin-5-yl)(piperidin-1-yl)methanone] | 223 °C | 
CC1=C(C(=O)N2CCCCC2)C(c2ccc(Cl)cc2)NC(=S)N1 (stereo not drawn) [DHPM-KN9, (4-(4-Chlorophenyl)-6-methyl-2-thioxo-1,2,3,4-tetrahydropyrimidin-5-yl)(piperidin-1-yl)methanone] | 218 °C | 
CC1=C(C(=O)N2CCCCC2)C(c2ccccc2)NC(=S)N1 (stereo not drawn) [DHPM-KN1, (6-Methyl-4-phenyl-2-thioxo-1,2,3,4-tetrahydropyrimidin-5-yl)(piperidin-1-yl)methanone] | 240 °C | 16 µg/mL (≈ 50.7 µM)
CC1=C(C(=O)N2CCCCC2)C(c2ccc(F)cc2)NC(=S)N1 (stereo not drawn) [DHPM-KN2, (4-(4-Fluorophenyl)-6-methyl-2-thioxo-1,2,3,4-tetrahydropyrimidin-5-yl)(piperidin-1-yl)methanone] | 234 °C | 
CC1=C(C(=O)N2CCCCC2)C(c2ccc([N+](=O)[O-])cc2)NC(=S)N1 (stereo not drawn) [DHPM-KN5, (6-Methyl-4-(4-nitrophenyl)-2-thioxo-1,2,3,4-tetrahydropyrimidin-5-yl)(piperidin-1-yl)methanone] | 230 °C | 8 µg/mL (≈ 22.2 µM)
CC1=C(C(=O)N2CCCCC2)C(c2ccc(O)cc2)NC(=S)N1 (stereo not drawn) [DHPM-KN11, (4-(4-Hydroxyphenyl)-6-methyl-2-thioxo-1,2,3,4-tetrahydropyrimidin-5-yl)(piperidin-1-yl)methanone] | 274 °C | 
CC1=C(C(=O)N2CCCCC2)C(c2ccc(C(F)(F)F)cc2)NC(=S)N1 (stereo not drawn) [DHPM-KN10, (6-Methyl-2-thioxo-4-(4-(trifluoromethyl)phenyl)-1,2,3,4-tetrahydropyrimidin-5-yl)(piperidin-1-yl)methanone] | 172 °C | 128 µg/mL (≈ 334 µM)
COC(=O)C1=C(C)NC(=O)NC1c1ccc([N+](=O)[O-])cc1[N+](=O)[O-] (stereo not drawn) [DHPM-KN4, Methyl 4-(2,4-dinitrophenyl)-6-methyl-2-oxo-1,2,3,4-tetrahydropyrimidine-5-carboxylate] | 210 °C | 16 µg/mL (≈ 47.6 µM)
CC1=C(C(=O)N2CCCCC2)C(c2ccc(Br)cc2)NC(=S)N1 (stereo not drawn) [DHPM-KN6, (4-(4-Bromophenyl)-6-methyl-2-thioxo-1,2,3,4-tetrahydropyrimidin-5-yl)(piperidin-1-yl)methanone] | 258 °C | > 64 µg/mL
COc1ccc(C2NC(=S)NC(C)=C2C(=O)N2CCCCC2)cc1 (stereo not drawn) [DHPM-KN7, (4-(4-Methoxyphenyl)-6-methyl-2-thioxo-1,2,3,4-tetrahydropyrimidin-5-yl)(piperidin-1-yl)methanone] | 124 °C | > 64 µg/mL
COC(=O)C1=C(C)NC(=S)NC1c1ccc(C(F)(F)F)cc1 (stereo not drawn) [DHPM-KN3, Methyl 6-methyl-2-thioxo-4-(4-(trifluoromethyl)phenyl)-1,2,3,4-tetrahydropyrimidine-5-carboxylate] | 190 °C | 
